In assay [1] the target is T1, TNKS2 (Homo sapiens, UniProt Q9H2K2).
T1 construct: purchased BPS Bioscience, San Diego, USA 80572 (TNKS2 Histone Ribosylation Assay Kit)
T1 sequence (Q9H2K2 1-1166): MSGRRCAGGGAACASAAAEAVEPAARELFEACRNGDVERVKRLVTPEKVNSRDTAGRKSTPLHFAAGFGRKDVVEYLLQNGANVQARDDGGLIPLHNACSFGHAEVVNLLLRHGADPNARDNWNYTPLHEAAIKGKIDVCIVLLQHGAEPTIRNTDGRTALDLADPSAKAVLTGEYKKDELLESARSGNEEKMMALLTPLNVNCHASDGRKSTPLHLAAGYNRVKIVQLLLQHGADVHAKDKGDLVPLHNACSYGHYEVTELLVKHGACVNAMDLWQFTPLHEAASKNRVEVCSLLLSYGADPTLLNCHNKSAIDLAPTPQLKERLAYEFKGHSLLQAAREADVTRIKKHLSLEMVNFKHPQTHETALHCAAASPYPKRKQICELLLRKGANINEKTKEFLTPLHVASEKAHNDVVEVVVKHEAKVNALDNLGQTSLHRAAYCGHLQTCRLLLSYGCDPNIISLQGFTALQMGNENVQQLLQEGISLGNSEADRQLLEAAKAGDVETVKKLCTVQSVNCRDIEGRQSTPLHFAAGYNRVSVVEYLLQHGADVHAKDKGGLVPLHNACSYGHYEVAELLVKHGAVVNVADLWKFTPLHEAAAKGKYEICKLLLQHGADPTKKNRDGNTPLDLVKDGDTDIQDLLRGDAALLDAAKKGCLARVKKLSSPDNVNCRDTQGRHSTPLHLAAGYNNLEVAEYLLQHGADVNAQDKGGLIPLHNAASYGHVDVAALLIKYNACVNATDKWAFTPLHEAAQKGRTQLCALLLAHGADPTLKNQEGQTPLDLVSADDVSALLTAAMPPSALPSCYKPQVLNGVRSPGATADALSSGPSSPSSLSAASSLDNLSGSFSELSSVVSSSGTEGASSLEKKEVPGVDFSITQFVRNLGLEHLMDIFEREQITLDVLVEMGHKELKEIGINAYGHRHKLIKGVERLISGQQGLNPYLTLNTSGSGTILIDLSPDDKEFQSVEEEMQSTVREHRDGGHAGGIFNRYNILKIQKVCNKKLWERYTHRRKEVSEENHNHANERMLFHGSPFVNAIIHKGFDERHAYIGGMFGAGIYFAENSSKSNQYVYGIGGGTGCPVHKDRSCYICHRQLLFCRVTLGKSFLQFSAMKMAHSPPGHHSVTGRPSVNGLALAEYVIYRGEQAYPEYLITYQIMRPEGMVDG
The assay is described as follows: TNKS2 Assay B (auto-parsylation, [3H]-NAD+ SPA). The assay is classed as biochemical. Particulars: 6 nM TNKS2, auto-parsylation, over night at room temperature. The protocol:
The potency of selected compounds according to the invention was assessed applying a modified in vitro inhibition assay. Here, the TNKS2 catalyzed NAD^+-dependent ribosylation of the enzyme itself (auto-parsylation) was detected using [^3H]-NAD^+ as substrate and applying the scintillation proximity assay (SPA) method to detect tritium-labeled, parsylated TNKS2. The intensity of the readout signal is proportional to the incorporated [^3H]-NAD^+. Inhibition of TNKS2 leads to a decreased incorporation of [^3H]-NAD^+ and consequently to a lower readout signal intensity. The concentration of a test compound which inhibits the enzyme activity by 50% (corresponds to half of the normed readout signal intensity) is reported as IC50.
Protocol Auto-Parsylation Assay
The assay was conducted in a 96 well MTP format with the identical TNKS2 enzyme sample and NAD^+ sample as in the histone ribosylation assay with the following modifications: TNKS2 enzyme sample was diluted with a modified assay buffer (50 mM MES pH 7.0, 1 mM DTT, 0.01% Triton X-100) to a final concentration of 6 nM TNKS2 and 10×NAD^+ solution was diluted with the modified assay buffer (s. above) to a final 0.445×NAD^+ solution doped with 100 Bq/μl [^3H]-NAD^+[Catalog #NET443H050UC, Perkin Elmer, Waltham, Mass., USA]. Substrate solution (10 μl) was incubated with different test compound concentrations (2.5 μl in 10% DMSO in modified assay buffer) or control (2.5 μl 10% DMSO in modified assay buffer only) and enzyme (10 μl) over night at room temperature. Incorporated tritium was measured after addition of 50 ul SPA beads (1 mg/ml) [Catalog #RPNQ0095 20 mg/ml, Perkin Elmer, Waltham, Mass., USA; diluted 1:10 with Dulbecco's phosphate buffered saline, PBS Catalog #D8537, Sigma-Aldrich, Steinheim, Germany] and detection of the photon emission with a beta count plate reader [Wallac MicroBeta®, Perkin Elmer, Waltham, Mass., USA].

The subject of assay [2] is HEK293 cells cotransfected with the FOP control vector. The assay is described as follows: HEK293 FOP assay (control reporter with non-functional TCF elements). In kind it is cell-based. To be noted: Homo sapiens, 16 hours. The protocol:
In a parallel approach, HEK293 cells were cotransfected with the FOP control vector and pcDNA3. The FOP vector is identical to the TOP construct, but it contains instead of functional TCF elements a randomized, non-functional sequence. For this transfection a stable transfected cell line was generated as well, based on selection with Geneticin (1 mg/ml).
(§1) In preparation of the assay, the two cell lines were plated 24 h before beginning the test at 10000 cells per well in a 384 micro titre plate (MTP) in 30 μl growth medium. […] The recombinant human Wnt-3a was thereby applied between 2500 and 5 ng/ml in two-fold dilution steps.
(§2) Selective inhibitory activity for small molecules on the wildtype Wnt pathway was determined after parallel incubation of both (TOP and FOP) HEK293 reporter cell lines with a compound dilution series from 50 μM to 15 nM in steps of 3.16-fold dilutions in CAFTY buffer (130 mM sodium chloride, 5 mM potassium chloride, 20 mM HEPES, 1 mM magnesium chloride, 5 mM sodium bicarbonate, pH 7.4) containing 2 mM Ca^2+ and 0.01% BSA.
(§3) The compounds were thereby serially prediluted in 100% DMSO and thereafter 50 fold into the CAFTY compound dilution buffer (described above).

Assay [3] relates to wildtype Wnt signaling cascade. As to the kind of experiment: HEK293 TOP assay (Super TopFlash luciferase reporter, Wnt-3a stimulated). The assay is classed as cell-based. To be noted: Homo sapiens, HEK293, 16 h, HEK293 TOP reporter cells, Wnt3a at EC50, 16 hours.
Excerpt: 7.1 Measurement of the Inhibitory Activity of Selected Compounds on the Wildtype Wnt Signaling Cascade: HEK293 TOP/FOP Assay
In order to discover and characterize small molecules which inhibit the wildtype Wnt pathway, a cellular reporter assay was employed. The corresponding assay cell was generated by transfection of the mammalian cell line HEK293 (ATCC, #CRL-1573) with the Super TopFlash vector (Morin, Science 275, 1997, 1787-1790; Molenaar et al., Cell 86 (3), 1996, 391-399). The HEK293 cell line is cultivated at 37° C. and 5% CO2 in DMEM (Life Technologies, #41965-039), supplemented with 2 mM glutamine, 20 mM HEPES, 1.4 mM pyruvate, 0.15% Na-bicarbonate and 10% foetal bovine serum (GIBCO, #10270). Stable transfectants were generated by selection with 300 μg/ml Hygromycin.
as §1, §2, §3
Background: In a reporter assay the amount or activity of a reporter protein is the signal.

Bounds are passed on as bounds.

A word on the IC50: it is the point on the concentration scale where inhibition reaches its midpoint. A lower IC50 goes with inhibition by little substance. Turning to `Cc1cc(NC(=O)[C@H]2CC[C@H](NC(=O)c3cnn4cccnc34)CC2)c(Cl)cn1` [Example 153, N-{trans-4-[(5-chloro-2-methylpyridin-4-yl)carbamoyl]cyclohexyl}pyrazolo[1,5-a]pyrimidine-3-carboxamide], the IC50 in assay [1] is 170 nM; in assay [2], at least 50000 nM; in assay [3] it was 530 nM.

In the case of `CCN(c1ccccc1Cl)C(=O)[C@H]1CC[C@H](NC(=O)c2[nH]cnc2C(=O)NC)CC1` [Example 158, N^5-{trans-4-[(2-chlorophenyl)(ethyl)carbamoyl]cyclohexyl}-N^4-methyl-1H-imidazole-4,5-dicarboxamide], the IC50 was 150 nM in assay [1], at least 50000 nM in assay [2] and 34 nM in assay [3].

With `CNC(=O)c1nc[nH]c1C(=O)N[C@H]1CC[C@@]2(CCCN(c3ccc(F)cc3Cl)C2=O)CC1` [Example 159], the IC50 in assay [1] is 130 nM; in assay [2], at least 50000 nM; in assay [3], 14 nM.

Regarding `CNC(=O)c1nc[nH]c1C(=O)N[C@H]1CC[C@H](C(=O)Nc2c(Cl)cc(F)cc2C#N)CC1` [Example 174, N^5-{trans-4-[(2-chloro-6-cyano-4-fluorophenyl)carbamoyl]cyclohexyl}-N^4-methyl-1H-imidazole-4,5-dicarboxamide], the half-maximal inhibitory concentration (IC50) in assay [1] is 240 nM; in assay [2], at least 50000 nM; in assay [3] it was 79 nM.

As to `COC1CN(C(=O)c2nc[nH]c2C(=O)N[C@H]2CC[C@@]3(CCN(c4ccc(F)cc4Cl)C3=O)CC2)C1` [Example 188, N-[(trans)-2-(2-chloro-4-fluorophenyl)-1-oxo-2-azaspiro[4.5]dec-8-yl]-4-[(3-methoxyazetidin-1-yl)carbonyl]-1H-imidazole-5-carboxamide], the half-maximal inhibitory concentration (IC50) is 2.7 nM in assay [1], at least 50000 nM in assay [2] and 0.68 nM in assay [3].

Turning to `O=C(N[C@H]1CC[C@@]2(CCN(c3ccc(F)cc3Cl)C2=O)CC1)c1[nH]cnc1C(=O)N1CC(F)(F)C1` [Example 189, N-[(trans)-2-(2-chloro-4-fluorophenyl)-1-oxo-2-azaspiro[4.5]dec-8-yl]-4-[(3,3-difluoroazetidin-1-yl)carbonyl]-1H-imidazole-5-carboxamide], the IC50 in assay [1] amounted to 5.6 nM; in assay [2], 9800 nM; in assay [3] it was 0.3 nM.

Turning to `O=C(N[C@H]1CC[C@@]2(CCN(c3ccc(F)cc3Cl)C2=O)CC1)c1[nH]cnc1C(=O)N1CC(C(F)F)C1` [Example 190, N-[(trans)-2-(2-chloro-4-fluorophenyl)-1-oxo-2-azaspiro[4.5]dec-8-yl]-4-{[3-(difluoromethyl)azetidin-1-yl]carbonyl}-1H-imidazole-5-carboxamide], the IC50 was 2.8 nM in assay [1], 12000 nM in assay [2] and 0.06 nM in assay [3].

Turning to `O=C(N[C@H]1CC[C@@]2(CCN(c3ccc(F)cc3Cl)C2=O)CC1)c1[nH]cnc1C(=O)N1CC(O)C1` [Example 192, N-[(trans)-2-(2-chloro-4-fluorophenyl)-1-oxo-2-azaspiro[4.5]dec-8-yl]-4-[(3-hydroxyazetidin-1-yl)carbonyl]-1H-imidazole-5-carboxamide], the results for the IC50 in assay [1], in assay [2] and in assay [3] were 5.3 nM, at least 50000 nM and 0.21 nM, respectively.

Regarding `O=C(N[C@H]1CC[C@@]2(CCN(c3ccc(F)cc3Cl)C2=O)CC1)c1[nH]cnc1C(=O)N1CC(OC(F)F)C1` [Example 193, N-[(trans)-2-(2-chloro-4-fluorophenyl)-1-oxo-2-azaspiro[4.5]dec-8-yl]-4-{[3-(difluoromethoxy)azetidin-1-yl]carbonyl}-1H-imidazole-5-carboxamide], the IC50 in assay [1] was determined as 5 nM; in assay [2], 16000 nM; in assay [3], 0.6 nM.

Turning to `O=C(N[C@H]1CC[C@@]2(CCN(c3ccc(F)cc3Cl)C2=O)CC1)c1[nH]cnc1C(=O)N1CC2(COC2)C1` [Example 194, N-[(trans)-2-(2-chloro-4-fluorophenyl)-1-oxo-2-azaspiro[4.5]dec-8-yl]-4-(2-oxa-6-azaspiro[3.3]hept-6-ylcarbonyl)-1H-imidazole-5-carboxamide], the IC50 was 4.8 nM in assay [1], at least 50000 nM in assay [2] and 1.5 nM in assay [3].

With `Cc1cc(C2CC2)n2ncc(C(=O)N[C@H]3CC[C@H](C(=O)Nc4ccc(F)cc4Cl)CC3)c2n1` [Example 204, N-{trans-4-[(2-chloro-4-fluorophenyl)carbamoyl]cyclohexyl}-7-cyclopropyl-5-methylpyrazolo[1,5-a]pyrimidine-3-carboxamide], the IC50 in assay [1] was 160 nM; in assay [2], at least 50000 nM; in assay [3], 48 nM.

Regarding `Cc1cc(C)n2ncc(C(=O)N[C@H]3CC[C@]4(CCN(c5ccc(F)cc5Cl)C4=O)CC3)c2n1` [Example 207, N-[(cis)-2-(2-chloro-4-fluorophenyl)-1-oxo-2-azaspiro[4.5]dec-8-yl]-5,7-dimethylpyrazolo[1,5-a]pyrimidine-3-carboxamide], the values for the IC50 in assay [1], in assay [2] and in assay [3] were above 10000 nM, at least 50000 nM and 3500 nM, respectively.

In the case of `COCc1cc(C)nc2c(C(=O)N[C@H]3CC[C@@]4(CCN(c5ccc(F)cc5Cl)C4=O)CC3)cnn12` [Example 219, N-[(trans)-2-(2-chloro-4-fluorophenyl)-1-oxo-2-azaspiro[4.5]dec-8-yl]-7-(methoxymethyl)-5-methylpyrazolo[1,5-a]pyrimidine-3-carboxamide], the figures for the concentration for half-maximal inhibition (IC50) in assay [1], in assay [2] and in assay [3] were 7.5 nM, at least 500 nM and 5.6 nM, respectively.
